Laboratory results: publication PMC12948223, “HSP70 Interactome‐Mediated Proteolysis Targeting Chimera (HSP70‐PROTAC) for Ferroptosis‐Driven Cancer Treatment” (Advanced Science, 2025)

Key:
HT1080 cells = test: Cell viability CCK-8 assay; type: cell-based, human; conditions: Homo sapiens, HT-1080, CCK-8, 48 h, read-out: IC50 (cytotoxicity)
Experimental: To determine whether GPX4 degradation following treatment with HSP70‐PROTACs triggers cancer cell ferroptosis, we initially assessed the viability of HT1080 cells using the CCK‐8 assay after treatment with various concentrations of the tested compounds for 48 h. GPX4 inhibitor ML162, HSP70 inhibitor apoptozole, and two GPX4 non‐degradable HSP70‐PROTAC molecules, GDAz‐Neg1 and GDAz‐Neg2, were selected as controls. […] This remarkable activity might partly be ascribed to the high cell permeability conferred by the piperazine ring. […] We speculated that the potent anti‐proliferative activity of GDAz‐Neg2 may be attributed to the GPX4 inhibition.
The compounds under investigation were initially dissolved in dimethyl sulfoxide (DMSO) to generate stock solutions with a concentration of 10 mM. HT1080 cells or other tested cells were seeded in 96‐well plates at a density of 3000–5000 cells well^−1 and cultured at 37 °C. Following a 24‐h incubation period, the tested compounds were added to the wells at various concentrations (the DMSO stock solutions of all the tested compounds were diluted with culture medium to obtain the designated concentration containing a final concentration of DMSO less than 0.5% (v/v)). The cells were then cultured for an additional 48 or 72 h. Cell Counting Kit 8 (CCK‐8) assay was conducted to examine the effects of the tested compounds on cell viability, and the absorbance was measured at a wavelength of 450 nm. The IC50 values were determined utilizing GraphPad Prism software through nonlinear regression analysis. All experiments were independently repeated at least three times.

GPX4 = target: T1, GPX4 (Homo sapiens, UniProt P36969); test: GPX4 degradation by western blot in HT1080 cells; type: cell-based; design: determine the changes in the endogenous levels of GPX4 by western blot assay; endogenous in cells; host or cells: HT1080 fibrosarcoma cells, including siRNA-knockdown derivatives
T1 sequence (P36969 1-170 isoform P36969-2): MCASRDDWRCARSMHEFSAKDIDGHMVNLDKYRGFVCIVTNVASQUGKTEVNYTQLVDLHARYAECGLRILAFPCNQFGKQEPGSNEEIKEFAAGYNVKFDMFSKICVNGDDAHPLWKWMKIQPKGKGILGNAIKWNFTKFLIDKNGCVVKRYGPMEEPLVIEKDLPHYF
Experimental: To evaluate the GPX4 degradation efficiency of the synthesized HSP70‐PROTACs GDAz‐1–14, we first selected ferroptosis‐sensitive HT1080 fibrosarcoma cells (highly‐expressing GPX4) treated with different concentrations (0.1, 0.3, 1, and 3 µM) of these chimeras to determine the changes in the endogenous levels of GPX4 by western blot assay after 24 h treatment. […] This finding underscores the crucial role of the linker in HSP70‐PROTAC‐mediated protein degradation. […] In the case of alkyl chain derivatives (GDAz‐6–10), elongating the length of the linker generally led to a decreased GPX4 degrading activity. […] Thus, GDAz‐3 was selected for further evaluation.
Cells were seeded at a density of 4 × 10^5 cells well^−1 in 6‐well plates and allowed to incubate overnight. Cells were incubated with the indicated treatments. Thereafter, the cells were collected and lysed with RIPA buffer containing serine protease and phosphatase inhibitors for 30 min on ice. Proteins were quantified by using a BCA protein assay kit (Beyotime). Subsequently, SDS‐PAGE sample loading buffer was added, and the mixture was heated in a 100 °C metal bath for 10 min to denature the proteins. Protein samples from each group were separated by SDS‐PAGE gel and transferred to a PVDF membrane. After blocking with 5% skim milk for 1 h at room temperature, primary antibodies (GPX4: abcam (#ab125066, 1:1000); Hsp70: abcam (#ab2787, 1:1000); CHIP: HUABIO (#ST7108, 1:1000); UpingBio Technology Co., Ltd. (BRD4, #YP‐Ab‐18034, 1:1000; BAG‐1, #YP‐Ab‐00575, 1:1000); GAPDH: Proteintech (#60004‐1‐Ig, 1:50 000)) were used and incubated at 4 °C overnight on a rotary shaker. After washing the membranes with TBST buffer five times, the membranes were incubated with a second antibody (Cell Signaling Technology, #7074S, 1:1000 and #7076S, 1:1000) at room temperature for 2 h. Ultimately, the membrane was washed five times, and the antibody‐protein complexes were visualized using an ECL luminescence reagent (Biosharp, Shanghai, China). The relative intensities of the bands were analyzed by ImageJ and normalized to a loading control.

Structure (SMILES) | IC50 (HT1080 cells) | also measured
COc1ccc(-c2nc(-c3cc(C(F)(F)F)cc(C(F)(F)F)c3)n(Cc3ccc(C(=O)NC4CCN(C(=O)Cn5cc(COc6ccc(N(C(=O)CCl)C(C(=O)NCCc7ccccc7)c7cccs7)cc6Cl)nn5)CC4)cc3)c2-c2ccc(OC)cc2)cc1 (stereo not drawn) [GDAz-11, 4-((2-(3,5-bis(trifluoromethyl)phenyl)-4,5-bis(4-methoxyphenyl)-1H-imidazol-1-yl)methyl)-N-(1-(2-(4-((2-chloro-4-(2-chloro-N-(2-oxo-2-(phenethylamino)-1-(thiophen-2-yl)ethyl)acetamido)phenoxy)methyl)-1H-1,2,3-triazol-1-yl)acetyl)piperidin-4-yl)benzamide] | > 30000 nM | 
COc1ccc(-c2nc(-c3cc(C(F)(F)F)cc(C(F)(F)F)c3)n(Cc3ccc(C(=O)NCCNC(=O)Cn4cc(COc5ccc(N(C(=O)CCl)C(C(=O)NCCc6ccccc6)c6cccs6)cc5Cl)nn4)cc3)c2-c2ccc(OC)cc2)cc1 (stereo not drawn) [GDAz-6, 4-((2-(3,5-bis(trifluoromethyl)phenyl)-4,5-bis(4-methoxyphenyl)-1H-imidazol-1-yl)methyl)-N-(2-(2-(4-((2-chloro-4-(2-chloro-N-(2-oxo-2-(phenethylamino)-1-(thiophen-2-yl)ethyl)acetamido)phenoxy)methyl)-1H-1,2,3-triazol-1-yl)acetamido)ethyl)benzamide] | 350 ± 80 nM | 
COc1ccc(-c2nc(-c3cc(C(F)(F)F)cc(C(F)(F)F)c3)n(Cc3ccc(C(=O)NCCCCCCNC(=O)Cn4cc(COc5ccc(N(C(=O)CCl)C(C(=O)NCCc6ccccc6)c6cccs6)cc5Cl)nn4)cc3)c2-c2ccc(OC)cc2)cc1 (stereo not drawn) [GDAz-10, 4-((2-(3,5-bis(trifluoromethyl)phenyl)-4,5-bis(4-methoxyphenyl)-1H-imidazol-1-yl)methyl)-N-(6-(2-(4-((2-chloro-4-(2-chloro-N-(2-oxo-2-(phenethylamino)-1-(thiophen-2-yl)ethyl)acetamido)phenoxy)methyl)-1H-1,2,3-triazol-1-yl)acetamido)hexyl)benzamide] | > 30000 nM | 
COc1ccc(-c2nc(-c3cc(C(F)(F)F)cc(C(F)(F)F)c3)n(Cc3ccc(C(=O)NCC4CCN(C(=O)Cn5cc(COc6ccc(N(C(=O)CCl)C(C(=O)NCCc7ccccc7)c7cccs7)cc6Cl)nn5)CC4)cc3)c2-c2ccc(OC)cc2)cc1 (stereo not drawn) [GDAz-12, 4-((2-(3,5-bis(trifluoromethyl)phenyl)-4,5-bis(4-methoxyphenyl)-1H-imidazol-1-yl)methyl)-N-((1-(2-(4-((2-chloro-4-(2-chloro-N-(2-oxo-2-(phenethylamino)-1-(thiophen-2-yl)ethyl)acetamido)phenoxy)methyl)-1H-1,2,3-triazol-1-yl)acetyl)piperidin-4-yl)methyl)benzamide] | > 30000 nM | 
COc1ccc(-c2nc(-c3cc(C(F)(F)F)cc(C(F)(F)F)c3)n(Cc3ccc(C(=O)NCCOCCOCCOCCn4cc(COc5ccc(N(C(=O)CO)C(C(=O)NCCc6ccccc6)c6cccs6)cc5Cl)nn4)cc3)c2-c2ccc(OC)cc2)cc1 (stereo not drawn) [GDAz-OH] |  | GPX4 degradation by negative control compounds (GPX4; HT1080 cells, 24 h, tested concentrations (Figure 4A)): none of the compounds effectively triggered GPX4 degradation
NS(=O)(=O)OC[C@@H]1C[C@@H](n2ccc3c(N[C@H]4CCc5ccccc54)ncnc32)C[C@@H]1O [MLN4924, reference compound] |  | remaining activity at 2.5 µM (GPX4; HT-1080, HT1080 cells, MLN4924 2.5 µM alone, read-out: GPX4 % of control): 96%
COc1ccc(-c2nc(-c3cc(C(F)(F)F)cc(C(F)(F)F)c3)n(Cc3ccc(C(=O)NCCOCCOCCn4cc(COc5ccc(N(C(=O)CCl)C(C(=O)NCCc6ccccc6)c6cccs6)cc5Cl)nn4)cc3)c2-c2ccc(OC)cc2)cc1 (stereo not drawn) [GDAz-2, 4-((2-(3,5-bis(trifluoromethyl)phenyl)-4,5-bis(4-methoxyphenyl)-1H-imidazol-1-yl)methyl)-N-(2-(2-(2-(4-((2-chloro-4-(2-chloro-N-(2-oxo-2-(phenethylamino)-1-(thiophen-2-yl)ethyl)acetamido)phenoxy)methyl)-1H-1,2,3-triazol-1-yl)ethoxy)ethoxy)ethyl)benzamide] | 390 ± 110 nM | 
COc1ccc(-c2nc(-c3cc(C(F)(F)F)cc(C(F)(F)F)c3)n(Cc3ccc(C(=O)NCCOCCOCCOCCOCCn4cc(COc5ccc(N(C(=O)CCl)C(C(=O)NCCc6ccccc6)c6cccs6)cc5Cl)nn4)cc3)c2-c2ccc(OC)cc2)cc1 (stereo not drawn) [GDAz-4, 4-((2-(3,5-bis(trifluoromethyl)phenyl)-4,5-bis(4-methoxyphenyl)-1H-imidazol-1-yl)methyl)-N-(14-(4-((2-chloro-4-(2-chloro-N-(2-oxo-2-(phenethylamino)-1-(thiophen-2-yl)ethyl)acetamido)phenoxy)methyl)-1H-1,2,3-triazol-1-yl)-3,6,9,12-tetraoxatetradecyl)benzamide] | 390 ± 80 nM | 
COc1ccc(-c2nc(-c3ccc(OCc4cn(CCOCCOCCOCCNC(=O)CCCC[C@@H]5SC[C@@H]6NC(=O)N[C@@H]65)nn4)cc3)n(Cc3ccc(C(=O)NCCOCCOCCOCCn4cc(COc5ccc(N(C(=O)CCl)C(C(=O)NCCc6ccccc6)c6cccs6)cc5Cl)nn4)cc3)c2-c2ccc(OC)cc2)cc1 (stereo partly drawn) [GDAz-biotin] |  | GPX4 degradation activity of the probe (GPX4; HT1080 cells, 24 h, concentration over 5 µM): considerable GPX4 degradation activity
COc1ccc(-c2nc(-c3cc(C(F)(F)F)cc(C(F)(F)F)c3)n(Cc3ccc(C(=O)NCCOCCOCCOCCOCCOCCn4cc(COc5ccc(N(C(=O)CCl)C(C(=O)NCCc6ccccc6)c6cccs6)cc5Cl)nn4)cc3)c2-c2ccc(OC)cc2)cc1 (stereo not drawn) [GDAz-5, 4-((2-(3,5-bis(trifluoromethyl)phenyl)-4,5-bis(4-methoxyphenyl)-1H-imidazol-1-yl)methyl)-N-(17-(4-((2-chloro-4-(2-chloro-N-(2-oxo-2-(phenethylamino)-1-(thiophen-2-yl)ethyl)acetamido)phenoxy)methyl)-1H-1,2,3-triazol-1-yl)-3,6,9,12,15-pentaoxaheptadecyl)benzamide] | 210 ± 30 nM | 
COc1ccc(-c2nc(-c3cc(C(F)(F)F)cc(C(F)(F)F)c3)n(Cc3ccc(C(=O)N4CCN(C(=O)Cn5cc(COc6ccc(N(C(=O)CCl)C(C(=O)NCCc7ccccc7)c7cccs7)cc6Cl)nn5)CC4)cc3)c2-c2ccc(OC)cc2)cc1 (stereo not drawn) [GDAz-14, N-(4-((1-(2-(4-(4-((2-(3,5-bis(trifluoromethyl)phenyl)-4,5-bis(4-methoxyphenyl)-1H-imidazol-1-yl)methyl)benzoyl)piperazin-1-yl)-2-oxoethyl)-1H-1,2,3-triazol-4-yl)methoxy)-3-chlorophenyl)-2-chloro-N-(2-oxo-2-(phenethylamino)-1-(thiophen-2-yl)ethyl)acetamide] | 120 nM | 
COc1ccc(-c2nc(-c3cc(C(F)(F)F)cc(C(F)(F)F)c3)n(Cc3ccc(C(=O)NCCCNC(=O)Cn4cc(COc5ccc(N(C(=O)CCl)C(C(=O)NCCc6ccccc6)c6cccs6)cc5Cl)nn4)cc3)c2-c2ccc(OC)cc2)cc1 (stereo not drawn) [GDAz-7, 4-((2-(3,5-bis(trifluoromethyl)phenyl)-4,5-bis(4-methoxyphenyl)-1H-imidazol-1-yl)methyl)-N-(3-(2-(4-((2-chloro-4-(2-chloro-N-(2-oxo-2-(phenethylamino)-1-(thiophen-2-yl)ethyl)acetamido)phenoxy)methyl)-1H-1,2,3-triazol-1-yl)acetamido)propyl)benzamide] | 530 ± 70 nM | 
